This is an account of results in US20140057798A1, “PREDICTION OF DRUG SENSITIVITY OF LUNG TUMORS BASED ON MOLECULAR GENETIC SIGNATURES” (NESTEC S.A., priority 2011, published 2014).

The subject of assay [1] is A549 cells. The experiment in a line: Inhibition of tumor cell line growth (CellTiter-Glo), A549. The format is cell-based, human. As to conditions: A549, single inhibitor 0.01-10 μM, 5% FBS, 48 hours. (In general: In ATP-based viability assays light output follows the ATP content of the culture.)
The subject of assay [2] is eight human lung tumor cell lines. Briefly: Inhibition of tumor cell growth, panel of lung tumor cell lines. The format is cell-based.
Another assay concerns H1975 cells. The experiment in a line: Inhibition of tumor cell line growth (CellTiter-Glo), H1975. It is filed as cell-based, human.
Assay [3] concerns H1993 cells. The experiment in a line: Inhibition of tumor cell line growth (CellTiter-Glo), H1993. The format is cell-based, human. The note with it: H1993, single inhibitor 0.01-10 μM, 5% FBS, 48 hours.
The subject of assay [4] is H460 cells. Briefly: Inhibition of tumor cell line growth (CellTiter-Glo), H460. The format is cell-based, human. The note with it: H460, single inhibitor 0.01-10 μM, 5% FBS, 48 hours.
The test system of a further assay is H1650 cells. Briefly: Inhibition of tumor cell line growth (CellTiter-Glo), H1650. It is filed as cell-based, human. The note with it: H1650, single inhibitor 0.01-10 μM, 5% FBS, 48 hours.
For assay [5], the system named is H358 cells. The experiment in a line: Anchorage-independent growth inhibition (soft agarose colonies), H358. It is filed as cell-based, human. As to conditions: H358, 0.1 μM and 1 μM, two weeks, agar.
Description: (§1) The plates were kept at 4° C. for 2 hr to solidify the cell-containing layer. The plates were then incubated at 37° C. in a CO2 incubator with 2 mL of medium containing various concentrations of the kinase inhibitor. The medium with the inhibitor was changed every 3 days.
Assay [6] deals with IGF-1R pathway in H460 cells. The experiment in a line: Inhibition of activated signaling pathways by kinase inhibitors (CEER assay), H460. The format is cell-based, human. As to conditions: H460, serum-starved overnight, 4-hour treatment, CEER assay (FIG. 2).
Excerpt: (§2) The principal of the CEER™ assay is based on the capture of the target protein by a target-specific antibody printed in two dilutions on the surface of a microarray slide. […] Formation of this complex is initiated by the binding of the first detecting antibody, which is coupled to glucose oxidase (GO), to an epitope on the captured target protein that is different from the epitope recognized by the capture antibody, followed by the binding of a second detecting antibody, which is coupled to horseradish peroxidase (HRP), to a phosphorylated tyrosine (p-Tyr) residue on the target protein. […]
(§3) The capture antibodies against mouse IgG, human epidermal growth factor receptor 1 (Her1), human epidermal growth factor receptor 2 (Her2), human epidermal growth factor receptor 3 (Her3), human hepatocyte growth factor receptor (cMET), human insulin-like growth factor-1 receptor (IGF1R), human stem cell growth factor receptor (cKit), human phosphatidylinositol-3-kinase (PI3K), human Src homology 2 domain-containing protein (SHC) and human cytokeratin (CK), were printed in this order in 10 rows from top to bottom in each slide. […] The relative fluorescence value of the respective reagent blank was subtracted from each sample to give a relative fluorescence unit (RFU) according the number of cells' extract.
In assay [7] the test system is IGF-1R pathway in A549 cells. Briefly: Inhibition of activated signaling pathways by kinase inhibitors (CEER assay), A549. As to conditions: A549, serum-starved overnight, 4-hour treatment, CEER assay (FIG. 2). The format is cell-based, human.
Excerpt: as §2, §3
Assay [8] concerns H460 cells. Briefly: Anchorage-independent growth inhibition (soft agarose colonies), H460. The note with it: H460, 0.1 μM and 1 μM, two weeks, agar. The format is cell-based, human.
Description: as §1
The test system of another assay is HCC827 cells. The experiment in a line: Inhibition of tumor cell line growth (CellTiter-Glo), HCC827. The format is cell-based, human.
The subject of assay [9] is H358 cells. Briefly: Inhibition of tumor cell line growth (CellTiter-Glo), H358. The format is cell-based, human. As to conditions: H358, single inhibitor 0.01-10 μM, 5% FBS, 48 hours.
Assay [10] relates to A549 cells. Briefly: Anchorage-independent growth inhibition (soft agarose colonies), A549. As to conditions: A549, 0.1 μM and 1 μM, two weeks, agar. It is filed as cell-based, human.
Description: as §1
The test system of assay [11] is H1734 cells. The experiment in a line: Inhibition of tumor cell line growth (CellTiter-Glo), H1734. The note with it: H1734, single inhibitor 0.01-10 μM, 5% FBS, 48 hours.
Assay [12] deals with Her1 and/or Her2 pathway in H1734 cells. The note with it: H1734, serum-starved overnight, 4-hour treatment, CEER assay (FIG. 2).
Excerpt: as §2, §3
For assay [13], the system named is H1734 cells. The experiment in a line: Anchorage-independent growth inhibition (soft agarose colonies), H1734. As to conditions: H1734, 0.1 μM and 1 μM, two weeks, agar. The format is cell-based, human.
The test system of assay [14] is c-Met pathway in H1993 cells. The experiment in a line: Inhibition of activated signaling pathways by kinase inhibitors (CEER assay), H1993 c-Met. It is filed as cell-based, human. The note with it: H1993, serum-starved overnight, 4-hour treatment, CEER assay (FIG. 2).
Excerpt: as §2, §3
Assay [15] relates to H1993 cells. The experiment in a line: Anchorage-independent growth inhibition (soft agarose colonies), H1993. The format is cell-based, human. The note with it: H1993, 0.1 μM and 1 μM, two weeks, agar.
Description: as §1
Setting [16] is: H1975, single inhibitor 0.01-10 μM, 5% FBS, 48 hours.

Each structure is given as a SMILES string. Entries after “also recorded” stand apart in the source; their conditions may differ. Where two headings read alike, the source gives them in different places.

`Cn1c(=O)n(-c2ccc(C(C)(C)C#N)cc2)c2c3cc(-c4cnc5ccccc5c4)ccc3ncc21` [BEZ-235]: the “inhibition of cell proliferation” value with A549 cells [1] is listed as “inhibited; also recorded: sensitive”; in the assay on H1975 cells (setting [16]), “weakly inhibited”; in the assay with H1993 cells [3] it was “only weakly”; with H460 cells [4], “inhibited; also recorded: sensitive”. In addition, the “inhibition of tumor cell growth across the cell lines tested” value in assay [2] is “effectively inhibited tumor cell growth in most of the cell lines tested, except the H1993 and H1650 cells”.

`CN(C)C/C=C/C(=O)Nc1cc2c(Nc3ccc(F)c(Cl)c3)ncnc2cc1O[C@H]1CCOC1` [BIBW-2992]: the “inhibition of cell proliferation” value in the assay on H1650 cells is “inhibited”; in the assay with H1975 cells, “potently inhibit the growth; also recorded: moderately inhibited”; in the assay on H1993 cells [3], “only weakly”.

`Cc1cc(N2CCOCC2)cc2[nH]c(-c3c(NC[C@@H](O)c4cccc(Cl)c4)cc[nH]c3=O)nc12` [BMS-536924]: the “reduction of cell colony size, anchorage-independent growth” value in the assay with H358 cells [5], in the assay with H460 cells [8] and in the assay with A549 cells [10] was “reduce cell colony size formation dose-dependently” each time. In addition, the “blocking of activated IGF-1R pathway” value in assay [6] and in [7] was “able to block” throughout. Moreover, the “inhibition of cell proliferation” value in the assay with A549 cells [1] is “inhibited”; with HCC827 cells (HCC827, single inhibitor 0.01-10 μM, 5% FBS, 48 hours), “inhibition of proliferation”; with H1975 cells (setting [16]), “able to inhibit the growth”; with H358 cells [9], “inhibit its proliferation more effectively”; in the assay on H460 cells [4], “weakly inhibited”.

Turning to `C#Cc1cccc(Nc2ncnc3cc(OCCOC)c(OCCOC)cc23)c1` [Erlotinib], the “inhibition of cell proliferation” value in the assay on H1734 cells [11] and in the assay with H1975 cells (setting [16]) was “inhibited” in each case.

For `CS(=O)(=O)CCNCc1ccc(-c2ccc3ncnc(Nc4ccc(OCc5cccc(F)c5)c(Cl)c4)c3c2)o1` [Lapatinib], the “inhibition of cell proliferation” value in the assay with HCC827 cells is given as “able to inhibit the proliferation”; with H1975 cells (setting [16]), “resistant”; with H358 cells [9], “weakly blocked”. In addition, in assay [12], the “blocking of Her1 and/or Her2 pathway activation” value was “activation blocked”.

For the molecule `O=C(NOC[C@H](O)CO)c1ccc(F)c(F)c1Nc1ccc(I)cc1F` [PD-325901], the “inhibition of cell proliferation” value is “not and weakly” with A549 cells [1]; “effective in blocking the growth” in the assay on H1734 cells [11]; “weakly inhibited” in the assay on H1975 cells (setting [16]); “not” in the assay with H358 cells [9]; “able to block the proliferation” in the assay on H1993 cells [3]; “not” with H460 cells [4]. In the assay with H1734 cells [13], the “proliferation of cell colony size, anchorage-independent growth” value was “potently blocked”.

`C[C@@H](Oc1cc(-c2cnn(C3CCNCC3)c2)cnc1N)c1c(Cl)ccc(F)c1Cl` [PF-2341066]: in [14], the “blocking of c-Met pathway activation” value was “blocked”. In addition, in the assay with H1993 cells [15], the “large colony formation, anchorage-independent growth” value is recorded as “inhibited”. Besides, the “inhibition of cell proliferation” value is on record as “not inhibited” with H358 cells [9] and “block its proliferation very effectively” with H1993 cells [3].
